According to paper PMC6277767, “Broad and Region-Specific Impacts of the Synthetic Cannabinoid CP 55,940 in Adolescent and Adult Female Mouse Brains” (Frontiers in Molecular Neuroscience, 2018):

Test system: CD1 female mouse brain lipidome
Assay: Brain-region lipid levels (HPLC/MS/MS lipidomics) 2 h after single i.p. 3 mg/kg CP 55,940 vs vehicle
Format: in vivo
Settings: cerebellum
Procedure: The Bloomington Institutional Animal Care and Use Committee of Indiana University reviewed and approved the animal procedures. Female mice from the CD1 strain were utilized to match our study examining THC’s effects on the brain lipidome ([Leishman et al., 2018]). Mice were given a single i.p. injection of either 3 mg/kg CP or 1:1:18 cremophor:ethanol:saline vehicle (please refer to the section “3 mg/kg CP Is Relevant for Synthetic Cannabinoid Abuse and Has Stronger Effects on the Female Mouse Brain Lipidome During Adolescence” for a justification of dose and use of female mice). Three different age groups were given injections: PND 35 and PND 50 adolescents, and adult mice (PND 113). At least eight mice in each age group received CP and at least eight received vehicle. Matching the THC study time course ([Leishman et al., 2018]), mice were sacrificed via rapid decapitation 2 h after injection. Brains were immediately removed and flash-frozen in liquid nitrogen, and then stored at -80°C until dissections were performed. Brains were dissected on an ice-cold dissection plate into the following regions: STR, HIPP, CER, THAL, CTX, HYP, MID, and STEM. These abbreviations for these brain areas will be used exclusively when discussing the results generated by these specific dissections. Each dissected area was immediately placed in liquid nitrogen and then stored at -80°C until used for lipid extraction.
Tissue extracts were performed as previously described ([Bradshaw et al., 2006]; [Stuart et al., 2013]; [Raboune et al., 2014]; [Leishman et al., 2016a],[b], [2017], [2018]). First, samples were shock frozen in liquid nitrogen, weighed, and transferred to a centrifuge tube. The mass of the largest sample was multiplied by 50 to determine how many milliliters of HPLC-grade methanol (Fisher, Fair Lawn, NJ, United States) to add. Then, samples were spiked with 500 pmol deuterium-labeled NAGly (d8NAGly; Cayman Chemical, Ann Arbor, MI, United States). Samples were placed on ice in darkness for 2 h then individually homogenized and centrifuged at 19,000 × g for 20 min at 20°C. Supernatants were diluted with HPLC water (purified in house) to make a solution of 75% water, 25% supernatant. Lipids were partially purified on C18 solid phase extraction columns (Agilent, Palo Alto, CA, United States). A series of four elutions with 1.5 mL of 60%, 75%, 85%, and 100% methanol were collected ([Stuart et al., 2013]; [Leishman et al., 2016a],[b], [2018]).
As previously described ([Bradshaw et al., 2006]; [Tan et al., 2006]; [Smoum et al., 2010]; [Stuart et al., 2013]; [Tortoriello et al., 2013]; [Raboune et al., 2014]; [Leishman et al., 2016a],[b], [2017], [2018]), samples were analyzed using an Applied Biosystems API 3000 triple quadrupole mass spectrometer with electrospray ionization (Foster City, CA, United States). Using an Agilent XDB-C18 reversed phase analytical column and optimized mobile phase gradients, 20 μL from each elution were chromatographed. Two Shimadzu 10ADvp pumps (Columbia, MD, United States) provided the pressure for gradient elution. Mobile phase A: 20% methanol, 80% water (v/v) and 1 mM ammonium acetate (Sigma, St. Louis, MO, United States). Mobile phase B: 100% methanol, 1 mM ammonium acetate. Every method run began with 0% mobile phase B, reached 100% mobile phase B flowing at 0.2 mL/min, and gradually returned to 0% mobile phase B.
This screening library will be referred to as the lipidome when discussing data from this study. HPLC/MS/MS data were analyzed using Analyst software (Applied Biosystems) ([Bradshaw et al., 2006]; [Tan et al., 2006]; [Stuart et al., 2013]; [Tortoriello et al., 2013]; [Raboune et al., 2014]; [Leishman et al., 2016a],[b], [2017], [2018]). Chromatograms (Supplementary Figure 3) were generated by determining the retention time of analytes from the analytical column with a [M-1] or [M+1] parent peak and a fragmentation peak corresponding to the programmed values. […]

[1] = WT adult female mice, 3mg/kg CP 55,940

`CCCCCCC(C)(C)c1ccc([C@@H]2C[C@H](O)CC[C@H]2CCCO)c(O)c1` [CP 55,940] was tested, and the “N-palmitoyl serine level, Mean” value [1] was 5.77E-12, the “N-palmitoyl tyrosine level, Mean” value [1] was 9.82E-13 and the “N-palmitoyl valine level, Mean” value [1] was 1.08E-13. The “N-stearoyl GABA level, Mean” value [1] was 1.12E-11, the “N-stearoyl alanine level, Mean” value [1] was 5.69E-12 and the “N-stearoyl ethanolamine level, Mean” value [1] was 1.6E-11. For the same molecule, the “N-stearoyl glycine level, Mean” value [1] was 1.62E-12, the “N-stearoyl leucine level, Mean” value [1] was 1.18E-12 and the “N-stearoyl methionine level, Mean” value [1] was 3.32E-13. The “N-stearoyl phenylalanine level, Mean” value [1] was 2.74E-13, the “N-stearoyl serine level, Mean” value [1] was 1.52E-11 and the “Oleic acid level, Mean” value [1] was 6.36E-10. For the same molecule, the “PGE2 level, Mean” value [1] was 2.14E-10, the “PhosphoLEA level, Mean” value [1] was 4.64E-12 and the “2-arachidonoyl glycerol: Direction (relative to Veh)” value (adult, 3 mg/kg CP 55,940) was “↓”. For the same molecule, the “2-arachidonoyl glycerol: Magnitude (x Veh level)” value (adult, 3 mg/kg CP 55,940) was 0.81 x Veh level, the “2-linoleoyl glycerol: Direction (relative to Veh)” value (adult, 3 mg/kg CP 55,940) was “↓” and the “2-linoleoyl glycerol: Magnitude (x Veh level)” value (adult, 3 mg/kg CP 55,940) was 0.66 x Veh level. For the same molecule, the “2-oleoyl glycerol: Direction (relative to Veh)” value (adult, 3 mg/kg CP 55,940) was “↓”, the “2-oleoyl glycerol: Magnitude (x Veh level)” value (adult, 3 mg/kg CP 55,940) was 0.74 x Veh level and the “6-ketoPGF1α: Direction (relative to Veh)” value (adult, 3 mg/kg CP 55,940) was “↓”. The “6-ketoPGF1α: Magnitude (x Veh level)” value (adult, 3 mg/kg CP 55,940) was 0.68 x Veh level, the “Arachidonic acid: Direction (relative to Veh)” value (adult, 3 mg/kg CP 55,940) was “↓” and the “Arachidonic acid: Magnitude (x Veh level)” value (adult, 3 mg/kg CP 55,940) was 0.67 x Veh level. The “Linoleic acid: Direction (relative to Veh)” value (adult, 3 mg/kg CP 55,940) was “↓”, the “Linoleic acid: Magnitude (x Veh level)” value (adult, 3 mg/kg CP 55,940) was 0.63 x Veh level and the “N-arachidonoyl GABA: Direction (relative to Veh)” value (adult, 3 mg/kg CP 55,940) was “↓”. For the same molecule, the “N-arachidonoyl GABA: Magnitude (x Veh level)” value (adult, 3 mg/kg CP 55,940) was 0.65 x Veh level, the “N-arachidonoyl ethanolamine: Direction (relative to Veh)” value (adult, 3 mg/kg CP 55,940) was “↓” and the “N-arachidonoyl ethanolamine: Magnitude (x Veh level)” value (adult, 3 mg/kg CP 55,940) was 0.63 x Veh level. For the same molecule, the “N-arachidonoyl phenylalanine: Direction (relative to Veh)” value (adult, 3 mg/kg CP 55,940) was “↓”, the “N-arachidonoyl phenylalanine: Magnitude (x Veh level)” value (adult, 3 mg/kg CP 55,940) was 0.41 x Veh level and the “N-arachidonoyl taurine: Direction (relative to Veh)” value (adult, 3 mg/kg CP 55,940) was “↓”. The “N-arachidonoyl taurine: Magnitude (x Veh level)” value (adult, 3 mg/kg CP 55,940) was 0.77 x Veh level, the “N-docosahexaenoyl GABA: Direction (relative to Veh)” value (adult, 3 mg/kg CP 55,940) was “↓” and the “N-docosahexaenoyl GABA: Magnitude (x Veh level)” value (adult, 3 mg/kg CP 55,940) was 0.83 x Veh level. The “N-docosahexaenoyl ethanolamine: Direction (relative to Veh)” value (adult, 3 mg/kg CP 55,940) was “↓”, the “N-docosahexaenoyl ethanolamine: Magnitude (x Veh level)” value (adult, 3 mg/kg CP 55,940) was 0.73 x Veh level and the “N-linoleoyl GABA: Direction (relative to Veh)” value (adult, 3 mg/kg CP 55,940) was “↓”. The “N-linoleoyl GABA: Magnitude (x Veh level)” value (adult, 3 mg/kg CP 55,940) was 0.83 x Veh level, the “N-linoleoyl ethanolamine: Direction (relative to Veh)” value (adult, 3 mg/kg CP 55,940) was “↓” and the “N-linoleoyl ethanolamine: Magnitude (x Veh level)” value (adult, 3 mg/kg CP 55,940) was 0.64 x Veh level. For the same molecule, the “N-oleoyl serine: Direction (relative to Veh)” value (adult, 3 mg/kg CP 55,940) was “↓”, the “N-oleoyl serine: Magnitude (x Veh level)” value (adult, 3 mg/kg CP 55,940) was 0.72 x Veh level and the “N-oleoyl valine: Direction (relative to Veh)” value (adult, 3 mg/kg CP 55,940) was “↑”. The “N-oleoyl valine: Magnitude (x Veh level)” value (adult, 3 mg/kg CP 55,940) was 2.05 x Veh level, the “N-palmitoyl tyrosine: Direction (relative to Veh)” value (adult, 3 mg/kg CP 55,940) was “↓” and the “N-palmitoyl tyrosine: Magnitude (x Veh level)” value (adult, 3 mg/kg CP 55,940) was 0.74 x Veh level. For the same molecule, the “Oleic acid: Direction (relative to Veh)” value (adult, 3 mg/kg CP 55,940) was “↓”, the “Oleic acid: Magnitude (x Veh level)” value (adult, 3 mg/kg CP 55,940) was 0.63 x Veh level and the “PGE2: Direction (relative to Veh)” value (adult, 3 mg/kg CP 55,940) was “↓”.
